In US6905706B2, “Medicinal herbal extract carpediol for treating depression” (Swedish Herbal Institute, priority 2002, dated 2005):

Test: Effect of co-administered extracts on the pharmacokinetics of theophylline in rats
Settings: male, Wistar, rat, in vivo; for Cmax: Cmax of Theophylline; for AUC(0-inf): AUC0-∞ of Theophylline; for MRT: MRT of Theophylline
Experimental: Carpediol spissum (Batch No Ex 20404); Swedish Herbal Institute, Gothenburg, Sweden) as described above in Example 1. […] It was analyzed for purity by HPLC, Capillary electrophoresis, ^1H-NMR and ^13C-NMR. • (e) Internal standard: Methyl-4-hydroxybenzoate 99%, F.W. 152.15 Aldrich. • (f) Water, demonized and distilled. • (g) Water for High Performance Capillary Electrophoresis (HPCE), HEWLETT-PACKARD. • (h) Buffer pH=9.3 for HPCE (50 mM Borate). • (i) 0.1N Sodium Hydroxide Solution for HPCE. • (j) Chloroform HPLC grade. • (k) 2-Propanol spectrophotometric grade. • (l) Methanol Chromasorv.
Animals—In this study, 144 time-mated male Wistar rats were used. Breeder: Institute of Fine Organic Chemistry of the National Academy of Science, Yerevan. The initial weight of the animals: 130-170 g (mean weight 149.93±12.4 g). […] All animals were clinically examined upon arrival and any animal showing signs of abnormality or disease was excluded. Animals considered unsuitable for the study were replaced before the start. No animal was replaced following the start of the study.
Dosage and Administration—An appropriate amount of herbal extract was dissolved in distilled water and given at 10:00-10:30 am by oral gavage. Suspensions were shaken gently before oral administration. Suspensions were prepared fresh every day. Control animals were given an appropriate volume of drinking water. Blood samples from rats receiving the carrier only were also analyzed.
Groups of six animals were treated orally with water (10 ml×2 times per day) for three days. 60 minutes after last administration of water, a solution of Aminophylline (10 ml/kg) was given to each animal in dose of 240 mg/kg (corresponding to 192 mg/kg of Theophylline) and blood samples were taken 0.25, 0.5, 1.0, 2.0, 4.0, 6.0 and 8.0 hours after the theophylline administration. A separate group of animals was used for each time point.
It was administered orally in a volume of 10 ml/kg of body weight. Freshly prepared extract was administered two times daily for 3 consecutive days. Single dose—25 mg/kg, daily dose—50 mg/kg. 60 minutes after last administration, a water solution of Aminophylline (10 ml/kg) was given to each animal in dose of 240 mg/kg (corresponding to 192 mg/kg of Theophylline) and blood samples were taken 0.25, 0.5, 1.0, 2.0, 4.0, 6.0 and 8.0 hours after the theophylline administration. A separate group of animals was used for each time point.
One tablet of Jarsin 300 was suspended in 10 ml of water and administered two times daily for 3 consecutive days. 60 minutes after last administration, water solution of Aminophylline (10 ml/kg) was given to each animal in dose of 240 mg/kg (corresponding to 192 mg/kg of Theophylline) and blood samples were taken 0.25, 0.5, 1.0, 2.0, 4.0, 6.0 and 8.0 hours after the theophylline administration. A separate group of animals was used for each time point.
Sampling of blood and sample preparation—Animals were sacrificed by laboratory guillotine. Following decapitation, blood was collected separately in centrifuge tubes and centrifuged at 3000 rpm for 10 min. Blood serum was separated and 50 μl was taken for theophylline assay. Conservation of the samples: the centrifuge tubes were closed with caps, frozen and stored in a freezer for 1-3 days prior to bio-assay.
Analytical Method: Capillary Electrophoresis—A modified capillary electrophoresis method was used, using an internal standard and as a mobile phase 50 mM borate buffer (pH 9.3) without SDS.
Pre-assay preparation—The Ramzan et al. method (52) of extraction of theophylline from serum was modified as follows. 50 μl of blood serum was added to 10 μl of an internal standard methanol solution (methyl-paraben, 60 μg/ml) in centrifuge tube to obtain final concentration of methyl paraben 10 μg/ml. The solution was vortexed vigorously for 10 sec and 1 ml of solvent system of isopropanol. and chloroform in a 5:95 ratio was added for extraction.

[1] = Concentration of Theophylline in Rat Serum, Mean, Group 2 (CRE pretreatment 3 days), aminophylline 240 mg/kg p.o., mean n=6
[2] = Concentration of Theophylline in Rat Serum, Mean, Group 3 (Jarsin 300 pretreatment 3 days), aminophylline 240 mg/kg p.o., mean n=6
[3] = po, 240 mg/kg, Group 2 (CRE pretreatment), rats, calculated by mean concentrations
[4] = po, 240 mg/kg, Mean, Group 1 (water control), rats, mean of 6 series (column A)
[5] = po, 240 mg/kg, Mean, Group 2 (CRE pretreatment), rats, mean of 6 series (column A)
[6] = po, 240 mg/kg, Mean, Group 3 (Jarsin 300 pretreatment), rats, mean of 6 series (column A)
[7] = po, Group 3 (Jarsin 300 pretreatment), rats, calculated by mean concentrations
[8] = po, Mean, Group 3 (Jarsin 300 pretreatment), rats, mean of 6 series (column A)
[9] = po, Mean, Group 2 (CRE pretreatment), rats, mean of 6 series (column A)

**Q.** For `Cn1c(=O)c2[nH]cnc2n(C)c1=O` [Theophylline, 1,3-dimethylxantin], which concentration at 480 min (240 mg/kg, Level of theophylline in serum after 480 minutes, Group 1 (water control), rats) is on record?
**A.** Its concentration at 480 min is about 51000 ng/mL.

**Q.** And the Cmax (Group 2 (CRE pretreatment), rats, calculated by mean concentrations, 60 minutes)?
**A.** The Cmax was 142000 ng/mL.

**Q.** And the Cmax (Group 3 (Jarsin 300 pretreatment), rats, calculated by mean concentrations, 60 minutes)?
**A.** Its Cmax is 41600 ng/mL.

**Q.** And the concentration at 60 min (Concentration of Theophylline in Rat Serum, Group 2 (CRE pretreatment 3 days), aminophylline 240 mg/kg p.o., single rat)?
**A.** The concentration at 60 min was 109000 ng/mL.

**Q.** And the concentration at 15 min (Concentration of Theophylline in Rat Serum, Group 3 (Jarsin 300 pretreatment 3 days), aminophylline 240 mg/kg p.o., single rat)?
**A.** Its concentration at 15 min is 6640 ng/mL.

**Q.** What about the concentration at 15 min [1] of the same compound?
**A.** Its concentration at 15 min is 128000 ng/mL.

**Q.** What about the concentration at 30 min [1] of the same compound?
**A.** The concentration at 30 min was 138000 ng/mL.

**Q.** And the concentration at 60 min [1]?
**A.** The concentration at 60 min was 142000 ng/mL.

**Q.** What about the concentration at 120 min [1] of the same compound?
**A.** The concentration at 120 min was 130000 ng/mL.

**Q.** What about the concentration at 240 min [1] of the same compound?
**A.** The concentration at 240 min was 103000 ng/mL.

**Q.** What about the concentration at 360 min [1] of the same compound?
**A.** Its concentration at 360 min is 71000 ng/mL.

**Q.** What about the concentration at 480 min (Concentration of Theophylline in Rat Serum, Mean, Group 2 (CRE pretreatment 3 days), aminophylline 240 mg/kg p.o., 480 min, mean n=6) of the same compound?
**A.** Its concentration at 480 min is 31800 ng/mL.

**Q.** What about the concentration at 15 min [2] of the same compound?
**A.** The concentration at 15 min was 5170 ng/mL.

**Q.** And the concentration at 30 min [2]?
**A.** Its concentration at 30 min is 25500 ng/mL.

**Q.** And the concentration at 60 min [2]?
**A.** The concentration at 60 min was 41600 ng/mL.

**Q.** And the concentration at 120 min [2]?
**A.** The concentration at 120 min was 31100 ng/mL.

**Q.** And the concentration at 240 min [2]?
**A.** The concentration at 240 min was 16500 ng/mL.

**Q.** And the concentration at 360 min [2]?
**A.** Its concentration at 360 min is 15700 ng/mL.

**Q.** What about the concentration at 480 min (Concentration of Theophylline in Rat Serum, Mean, Group 3 (Jarsin 300 pretreatment 3 days), aminophylline 240 mg/kg p.o., 480 min, mean n=6) of the same compound?
**A.** The concentration at 480 min was 9280 ng/mL.

**Q.** What about the concentration at 480 min (Theophylline concentration in serum after 480 minutes, Group 2 (rats treated with CRE)) of the same compound?
**A.** Its concentration at 480 min is about 32000 ng/mL.

**Q.** What about the concentration at 480 min (Theophylline concentration in serum after 480 minutes, Group 3 (rats treated with Jarsin 300)) of the same compound?
**A.** Its concentration at 480 min is about 9300 ng/mL.

**Q.** And the AUC(0-inf) (po, 240 mg/kg, Group 1 (water control), rats, single series)?
**A.** The AUC(0-inf) was 1090 µg·h/mL.

**Q.** What about the AUC(0-inf) [3] of the same compound?
**A.** The AUC(0-inf) was 956 µg·h/mL.

**Q.** What about the AUC(0-inf) (po, 240 mg/kg, Mean, Group 1 (water control), rats, mean of 6 series) of the same compound?
**A.** The AUC(0-inf) was 1020 µg·h/mL.

**Q.** What about the AUC(0-inf) [4] of the same compound?
**A.** Its AUC(0-inf) is 1020 ± 109 µg·h/mL.

**Q.** And the AUC(0-inf) [5]?
**A.** The AUC(0-inf) was 920 ± 128 µg·h/mL.

**Q.** And the AUC(0-inf) (po, 240 mg/kg, Mean, Group 3 (Jarsin 300 pretreatment), rats, mean of 6 series)?
**A.** Its AUC(0-inf) is 214 µg·h/mL.

**Q.** What about the Cmax [4] of the same compound?
**A.** The Cmax was 195000 ng/mL.

**Q.** What about the Cmax [5] of the same compound?
**A.** Its Cmax is 169000 ± 14400 ng/mL.

**Q.** What about the Cmax [6] of the same compound?
**A.** The Cmax was 43900 ng/mL.

**Q.** And the MRT (po, 240 mg/kg, Group 1 (water control), rats, calculated by mean concentrations)?
**A.** Its MRT is 6.83 h.

**Q.** And the MRT [3]?
**A.** Its MRT is 5.14 h.

**Q.** What about the MRT [4] of the same compound?
**A.** Its MRT is 6.62 h.

**Q.** What about the MRT [5] of the same compound?
**A.** Its MRT is 4.45 ± 0.696 h.

**Q.** And the MRT [6]?
**A.** Its MRT is 5.44 h.

**Q.** And the half-life (po, 240 mg/kg, T1/2 of Theophylline, Group 1 (water control), rats, calculated by mean concentrations)?
**A.** The half-life was 4.66 h.

**Q.** And the half-life (po, 240 mg/kg, T1/2 of Theophylline, Group 2 (CRE pretreatment), rats, calculated by mean concentrations)?
**A.** The half-life was 3.39 h.

**Q.** What about the half-life (po, 240 mg/kg, T1/2 of Theophylline, Mean, Group 2 (CRE pretreatment), rats, mean of 6 series (column A)) of the same compound?
**A.** The half-life was 2.81 ± 0.404 h.

**Q.** What about the half-life (po, 240 mg/kg, t1/2 of Theophylline, Mean, Group 1 (water control), rats, mean of 6 series (column A)) of the same compound?
**A.** The half-life was 4.5 h.

**Q.** What about the half-life (po, 240 mg/kg, t1/2 of Theophylline, Mean, Group 3 (Jarsin 300 pretreatment), rats, mean of 6 series (column A)) of the same compound?
**A.** Its half-life is 3.55 h.

**Q.** And the AUC(0-inf) (po, Group 1 (water control), rats, calculated by mean concentrations)?
**A.** Its AUC(0-inf) is 1030 µg·h/mL.

**Q.** And the AUC(0-inf) [7]?
**A.** The AUC(0-inf) was 208 µg·h/mL.

**Q.** What about the AUC(0-inf) (po, Mean, Group 2 (CRE pretreatment), rats, mean of 6 series) of the same compound?
**A.** The AUC(0-inf) was 920 µg·h/mL.

**Q.** And the AUC(0-inf) [8]?
**A.** Its AUC(0-inf) is 214 ± 31 µg·h/mL.

**Q.** What about the Cmax (po, Group 2 (CRE pretreatment), rats, single series) of the same compound?
**A.** Its Cmax is 158000 ng/mL.

**Q.** And the Cmax (po, Group 3 (Jarsin 300 pretreatment), rats, calculated by mean concentrations, 60 minutes)?
**A.** The Cmax was 41600 ng/mL.

**Q.** And the Cmax [9]?
**A.** The Cmax was 169000 ng/mL.

**Q.** What about the Cmax [8] of the same compound?
**A.** Its Cmax is 43900 ± 8490 ng/mL.

**Q.** And the MRT [7]?
**A.** Its MRT is 5.36 h.

**Q.** What about the MRT [9] of the same compound?
**A.** The MRT was 4.45 h.

**Q.** And the MRT [8]?
**A.** Its MRT is 5.44 ± 0.559 h.

**Q.** And the half-life (po, T1/2 of Theophylline, Group 3 (Jarsin 300 pretreatment), rats, calculated by mean concentrations)?
**A.** Its half-life is 3.43 h.

**Q.** What about the half-life (po, T1/2 of Theophylline, Mean, Group 2 (CRE pretreatment), rats, mean of 6 series (column A)) of the same compound?
**A.** Its half-life is 2.81 h.

**Q.** And the half-life (po, t1/2 of Theophylline, Mean, Group 3 (Jarsin 300 pretreatment), rats, mean of 6 series (column A))?
**A.** The half-life was 3.55 ± 0.549 h.
